Measurements as given in US9067894B1, “Compound, composition, and method of activating GIRK potassium channel and use of same for treating conditions of interest” (Vanderbilt University, priority 2013, dated 2015).
“Also recorded” adds a separate entry of the source.

Legend:
[1] = Pentylenetetrazol (PTZ)-induced seizure model; type: in vivo, mouse; settings: mice, i.p.; VU0456810 60 mg/kg, sodium valproate 150 mg/kg; PTZ 40 mg/kg; 20 minute timeframe
Description: After thirty minutes, PTZ was administered intraperitoneally (i.p., 40 mg/kg). Immediately following administration of PTZ, the amount of time elapsed before the first occurrence of tremors, tonic-clonic seizures, convulsion, and death was recorded. All mice were subject to a 20-minute post-[…] cutoff.
In all cases, experiments were conducted in a blind manner with respect to the experimenters. Data were evaluated in Excel using one-tailed, unpaired Student's t-test, assuming populations with unequal variance.

GIRK2/3 = target: T1, GIRK2/3 (Homo sapiens, UniProt P48051+Q92806); test: Thallium flux assay, HEK-293 cells expressing GIRK2/3; type: cell-based; settings: cell line GIRK2-3
T1 construct: expressed in transfected cells; host or cells: HEK-293
T1 sequence (P48051 1-423): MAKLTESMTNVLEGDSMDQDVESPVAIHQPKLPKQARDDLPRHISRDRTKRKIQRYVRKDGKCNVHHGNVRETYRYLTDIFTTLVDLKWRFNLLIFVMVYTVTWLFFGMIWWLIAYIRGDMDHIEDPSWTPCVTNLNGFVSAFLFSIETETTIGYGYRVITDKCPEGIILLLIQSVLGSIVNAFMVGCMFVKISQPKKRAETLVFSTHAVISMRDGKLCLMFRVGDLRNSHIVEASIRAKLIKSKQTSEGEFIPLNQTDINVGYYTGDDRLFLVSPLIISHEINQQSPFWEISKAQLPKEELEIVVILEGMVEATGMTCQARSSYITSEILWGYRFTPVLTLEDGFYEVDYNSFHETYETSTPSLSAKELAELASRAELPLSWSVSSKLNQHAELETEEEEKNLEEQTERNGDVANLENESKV
T1 sequence (Q92806 1-393): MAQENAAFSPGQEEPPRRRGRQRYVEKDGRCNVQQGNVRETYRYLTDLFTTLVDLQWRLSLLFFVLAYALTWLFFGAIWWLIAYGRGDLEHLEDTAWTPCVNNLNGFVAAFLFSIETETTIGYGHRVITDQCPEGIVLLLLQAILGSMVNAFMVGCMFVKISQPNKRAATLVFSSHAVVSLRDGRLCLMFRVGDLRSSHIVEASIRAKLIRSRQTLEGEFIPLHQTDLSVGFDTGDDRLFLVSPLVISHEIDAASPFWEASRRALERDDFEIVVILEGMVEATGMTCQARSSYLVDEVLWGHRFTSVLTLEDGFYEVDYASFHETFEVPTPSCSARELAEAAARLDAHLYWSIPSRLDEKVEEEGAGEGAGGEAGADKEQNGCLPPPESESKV
Description: Cell Line Construction and Cell Culture. HEK-293 cells co-expressing human GIRK1/2 and rat mGlu8 were generated as previously described (Niswender et al., 2008). A HEK-293 cell line (ATCC, Manassas, Va.) expressing human GIRK1 and human GIRK2 was constructed by transfecting HEK-293 cells with GIRK1 and GIRK2 (Origene, Rockville, Md.) cloned into the pBudCE4.1 vector (Life Technologies, Carlsbad, Calif.) using FuGene 6 (Promega, Madison, Wis.) transfection reagent. Unless otherwise noted, other ion channel-expressing cells were prepared by transfecting HEK-293 cells with individual or combinations of subunits: GIRK1, pCMV6-A-BSD; GIRK2, pCMV6-A-puro; GIRK3, pCMV6-A-hygro; GIRK4, pCMV6-A-AC; Kv7.4, pIRESneo3. The Kir2.1 and hERG-expressing cell lines were made by transfecting T-REx-293 cells (Life Technologies, Carlsbad, Calif.) with Kir2.1 and Kv11.1, respectively, cloned into pcDNA5TO. Monoclonal cell lines were produced by limiting-dilution cloning of antibiotic-resistant cells and functional selection using the thallium flux assay described below. Unless otherwise noted, cells were maintained in Minimal Essential Medium, Alpha Medium (Mediatech, Manassas, Va.) supplemented with 10% fetal bovine serum (Sigma-Aldrich, Saint Louis, Mo.) and GlutaGro (Mediatech, Manassas, Va.), referred to henceforth as cell culture medium. […]

**Q.** Which “animals experiencing convulsions from PTZ treatment” value [1] does the source give for `Cc1cc(NC(=O)Nc2ccc(F)c(F)c2)n(-c2ccccc2)n1` [VU0456810, 1-(3,4-difluorophenyl)-3-(3-methyl-1-phenyl-1H-pyrazol-5-yl)urea] here?
**A.** 5 out of 8 animals did not experience convulsions and significant decrease

**Q.** What about the “animals surviving PTZ treatment” value [1] of the same compound?
**A.** 6 out of 8 animals survived and significant increase

**Q.** And the “EC50 Thallium Flux” value (GIRK2/3)?
**A.** complete lack of efficacy; also recorded: Inactive

**Q.** What about the “EC50 Thallium Flux” value (GIRK2/3; listed as 2) of the same compound?
**A.** inactive
